Active and inactive are the calls of the source. No cut-off for these calls is given here. Where only a bound is given, the exact number is not on record here.

The source of these data is ChEMBL document CHEMBL5137082, “Discovery of a Novel Vascular Disrupting Agent Inhibiting Tubulin Polymerization and HDACs with Potent Antitumor Effects” (J Med Chem, 2022).

The test system of data set [1] is K562. Put plainly: cells. The class given is functional, cell-based. Particulars: Homo sapiens, K562, 72 h.
Description: Antiproliferative activity against human K562 cells assessed as inhibition of cell growth measured after 72 hrs by MTT assay
The test system of data set [2] is HepG2. Put plainly: Antiproliferative activity against human HepG2 cells assessed as inhibition of cell growth measured after 72 hrs by MTT assay. The class given is functional, cell-based. The conditions noted are these: HepG2, 72 h. A general note: Tetrazolium assays rely on reduction of a dye to a coloured formazan, in cell work by metabolically active cells.

Data set [3] relates to MDA-MB-231. Put plainly: Antiproliferative activity against human MDA-MB-231 cells assessed as inhibition of cell growth measured after 72 hrs by MTT assay. The class given is functional, cell-based. Particulars: MDA-MB-231, 72 h.
Data set [4] deals with HCT-116. Put plainly: Antiproliferative activity against human HCT-116 cells assessed as inhibition of cell growth measured after 72 hrs by MTT assay. The data set is classed as functional, cell-based. The conditions noted are these: HCT-116, 72 h.
Data set [5] in a line: Antiproliferative activity against human HFL1 cells assessed as inhibition of cell growth measured after 72 hrs by MTT assay. The class given is toxicity, cell-based.
The subject of data set [6] is H22. Put plainly: Antivascular activity against mouse H22 cells allografted in ICR mouse assessed as inhibition of blood vessel formation at 20 mg/kg, iv administered qd measured after 21 days by immunohistochemistry analysis. The class given is functional, organism-based. The conditions noted are these: time 21.0 day.
Data set [7] has as its system H22. Put plainly: Antiproliferative activity against mouse H22 cells assessed as inhibition of cell growth measured after 72 hrs by MTT assay. The class given is functional, cell-based. Particulars: H22, 72 h.
The test system of data set [8] is HUVEC. In words: Antivascular activity against HUVEC cells assessed as inhibition of capillary-like tubule formation at 30 nM measured after 6 hrs by inverted microscopy. Particulars: Homo sapiens. The class given is functional, cell-based.
In data set [9] the test system is H22. Put plainly: Antitumor activity against mouse H22 cells allografted in ICR mouse assessed as reduction in tumor weight at 20 mg/kg, iv administered qd measured after 21 days. The class given is functional. Also on record: scale not given: the % may be the effect or the level left. Particulars: time 21 day.
Data set [10] deals with MCF7. In words: Antiproliferative activity against human MCF7 cells assessed as inhibition of cell growth measured after 72 hrs by MTT assay. The class given is functional, cell-based. The conditions noted are these: MCF7, 72 h.
The test system of data set [11] is H22. Put plainly: Antivascular activity against mouse H22 cells allografted in ICR mouse assessed as reduction in tumor microvessel density by measuring CD31-positive cells at 20 mg/kg, iv administered qd measured after 21 days by immunohistochemistry analysis. The class given is functional, organism-based. Particulars: time 21.0 day.
In data set [12] the target is Histone deacetylase 1 (Homo sapiens, UniProt Q13547). In words: Inhibition of HDAC1 in human HeLa cells using BOC-K(Ac)-AMC as substrate measured after 30 mins by fluorescence based microtiter plate reader assay. The data set is classed as cell-based.
Chain of Histone deacetylase 1 (Q13547 whole entry): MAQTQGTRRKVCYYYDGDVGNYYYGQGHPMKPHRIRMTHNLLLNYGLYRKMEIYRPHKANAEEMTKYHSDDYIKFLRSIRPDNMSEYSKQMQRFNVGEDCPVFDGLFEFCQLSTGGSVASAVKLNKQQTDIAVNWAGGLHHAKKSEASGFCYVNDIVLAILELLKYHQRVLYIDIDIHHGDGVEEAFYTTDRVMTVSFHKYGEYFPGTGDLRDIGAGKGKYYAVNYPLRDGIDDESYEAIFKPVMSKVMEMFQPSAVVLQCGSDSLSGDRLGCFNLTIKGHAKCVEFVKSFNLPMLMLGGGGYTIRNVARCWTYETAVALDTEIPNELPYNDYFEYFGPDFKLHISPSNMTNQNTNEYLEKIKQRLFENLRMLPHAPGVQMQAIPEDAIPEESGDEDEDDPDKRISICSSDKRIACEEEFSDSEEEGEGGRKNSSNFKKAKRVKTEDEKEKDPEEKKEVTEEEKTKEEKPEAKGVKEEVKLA
Data set [13] deals with T1, Protein deacetylase HDAC6 (Homo sapiens, UniProt Q9UBN7).
T1 sequence (Q9UBN7 whole entry): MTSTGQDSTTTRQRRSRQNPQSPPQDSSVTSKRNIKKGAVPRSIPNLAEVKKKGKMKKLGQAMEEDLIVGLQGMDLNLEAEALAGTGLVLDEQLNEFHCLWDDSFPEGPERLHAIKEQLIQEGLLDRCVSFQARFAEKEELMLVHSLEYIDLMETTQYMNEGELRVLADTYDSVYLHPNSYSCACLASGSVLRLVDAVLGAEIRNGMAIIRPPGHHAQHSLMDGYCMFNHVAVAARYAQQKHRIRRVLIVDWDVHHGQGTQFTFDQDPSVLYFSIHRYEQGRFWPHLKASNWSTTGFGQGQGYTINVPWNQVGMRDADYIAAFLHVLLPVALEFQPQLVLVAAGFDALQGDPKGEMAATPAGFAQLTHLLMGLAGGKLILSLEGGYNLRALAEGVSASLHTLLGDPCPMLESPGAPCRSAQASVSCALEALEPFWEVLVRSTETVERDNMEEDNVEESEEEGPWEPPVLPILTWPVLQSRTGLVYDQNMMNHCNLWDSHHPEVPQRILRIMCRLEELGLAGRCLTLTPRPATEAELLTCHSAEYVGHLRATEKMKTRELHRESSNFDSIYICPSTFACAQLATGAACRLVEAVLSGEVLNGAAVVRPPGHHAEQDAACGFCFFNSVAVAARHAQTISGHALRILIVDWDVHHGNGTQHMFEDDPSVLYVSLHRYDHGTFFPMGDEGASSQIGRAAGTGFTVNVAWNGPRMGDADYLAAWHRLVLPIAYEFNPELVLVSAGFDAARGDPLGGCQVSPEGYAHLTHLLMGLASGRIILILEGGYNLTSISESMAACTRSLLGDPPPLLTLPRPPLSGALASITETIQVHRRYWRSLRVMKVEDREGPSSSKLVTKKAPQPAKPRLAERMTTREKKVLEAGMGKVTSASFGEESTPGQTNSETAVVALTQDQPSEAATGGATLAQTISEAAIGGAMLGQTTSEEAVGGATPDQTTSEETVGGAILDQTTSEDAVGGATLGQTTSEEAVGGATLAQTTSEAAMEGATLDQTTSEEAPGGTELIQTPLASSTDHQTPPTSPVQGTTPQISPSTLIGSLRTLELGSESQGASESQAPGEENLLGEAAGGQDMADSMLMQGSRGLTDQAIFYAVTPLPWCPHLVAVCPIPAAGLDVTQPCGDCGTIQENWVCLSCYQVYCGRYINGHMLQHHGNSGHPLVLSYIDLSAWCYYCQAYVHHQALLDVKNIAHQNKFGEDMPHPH
Put plainly: Inhibition of HDAC6 in human HeLa cells using BOC-K(Ac)-AMC as substrate measured after 30 mins by fluorescence based microtiter plate reader assay. The data set is classed as cell-based.

Data set [14] concerns the target Histone deacetylase 3 (Homo sapiens, UniProt O15379). In words: Inhibition of HDAC3 in human HeLa cells using BOC-K(Ac)-AMC as substrate measured after 30 mins by fluorescence based microtiter plate reader assay. The class given is cell-based.
Data set [15] deals with T2, Histone deacetylase 8 (Homo sapiens, UniProt Q9BY41).
T2 sequence (Q9BY41 whole entry): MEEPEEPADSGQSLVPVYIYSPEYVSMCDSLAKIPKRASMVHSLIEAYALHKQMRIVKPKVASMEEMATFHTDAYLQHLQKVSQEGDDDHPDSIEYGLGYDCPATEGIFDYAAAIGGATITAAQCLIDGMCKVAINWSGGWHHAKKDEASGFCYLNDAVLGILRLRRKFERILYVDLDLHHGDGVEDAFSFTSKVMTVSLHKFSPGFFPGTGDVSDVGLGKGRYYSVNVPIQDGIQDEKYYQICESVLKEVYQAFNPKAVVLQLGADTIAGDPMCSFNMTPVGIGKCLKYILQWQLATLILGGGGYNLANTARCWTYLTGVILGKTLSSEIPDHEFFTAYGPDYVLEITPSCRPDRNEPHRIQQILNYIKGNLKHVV
In words: Inhibition of HDAC8 in human HeLa cells using BOC-K(Ac)-AMC as substrate measured after 30 mins by fluorescence based microtiter plate reader assay. The class given is cell-based.

Data set [16] addresses Histone deacetylase 2 (Homo sapiens, UniProt Q92769). Put plainly: Inhibition of HDAC2 in human HeLa cells using BOC-K(Ac)-AMC as substrate measured after 30 mins by fluorescence based microtiter plate reader assay. The data set is classed as cell-based.
For data set [17], the system named is H22. Put plainly: Antitumor activity against mouse H22 cells allografted in ICR mouse assessed as reduction in tumor weight at 25 mg/kg, ip administered qd measured after 21 days. The data set is classed as functional. Also on record: scale not given: the % may be the effect or the level left. Particulars: time 21 day.

Chain of Histone deacetylase 2 (Q92769 whole entry): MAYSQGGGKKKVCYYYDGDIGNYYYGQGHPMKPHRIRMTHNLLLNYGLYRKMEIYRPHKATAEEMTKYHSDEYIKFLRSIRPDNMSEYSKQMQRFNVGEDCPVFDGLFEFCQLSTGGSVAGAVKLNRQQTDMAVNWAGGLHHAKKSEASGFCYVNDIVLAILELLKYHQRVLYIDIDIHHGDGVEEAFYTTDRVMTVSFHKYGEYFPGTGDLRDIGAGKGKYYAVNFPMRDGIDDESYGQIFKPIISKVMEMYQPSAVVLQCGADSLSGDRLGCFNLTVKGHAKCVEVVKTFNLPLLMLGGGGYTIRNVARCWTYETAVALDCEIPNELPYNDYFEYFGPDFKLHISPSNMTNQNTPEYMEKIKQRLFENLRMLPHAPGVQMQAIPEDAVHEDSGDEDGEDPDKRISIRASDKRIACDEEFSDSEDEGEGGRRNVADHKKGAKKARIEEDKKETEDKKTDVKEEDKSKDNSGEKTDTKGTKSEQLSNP
Chain of Histone deacetylase 3 (O15379 whole entry): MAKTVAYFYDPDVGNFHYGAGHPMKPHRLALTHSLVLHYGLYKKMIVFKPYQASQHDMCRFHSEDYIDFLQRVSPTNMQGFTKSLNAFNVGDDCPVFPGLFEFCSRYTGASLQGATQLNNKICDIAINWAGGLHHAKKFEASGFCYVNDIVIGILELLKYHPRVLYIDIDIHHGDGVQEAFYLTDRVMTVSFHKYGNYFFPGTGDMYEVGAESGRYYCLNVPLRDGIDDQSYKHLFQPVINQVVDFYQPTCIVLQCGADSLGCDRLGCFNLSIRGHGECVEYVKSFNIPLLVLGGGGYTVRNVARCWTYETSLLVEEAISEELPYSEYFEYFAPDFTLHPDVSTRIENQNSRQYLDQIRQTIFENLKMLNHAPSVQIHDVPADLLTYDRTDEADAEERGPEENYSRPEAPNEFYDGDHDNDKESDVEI

What is called IC50 is the concentration that gives 50% inhibition. Regarding `COc1ccc(CNC(=O)c2cc(C#CCCC(=O)NO)ccc2N2CCOCC2)cc1O`, the concentration for half-maximal inhibition (IC50) in [1] was greater than 2000 nM.
For the compound `COc1ccc(CNC(=O)c2cc(F)ccc2N2CCOCC2)cc1O`, the IC50 in data set [2] stood at 27 nM; in [3], 26 nM; in [4], 29 nM; in [1] it was 17 nM; in [7], 29 nM; in [10] it was 32 nM. The IC50 at 72 h in [5] is 126 nM. Moreover, the outcome in data set [6], in data set [8] and in data set [11] was Active. Moreover, in data set [9], the Activity is reported as 74%.
In the case of `COc1ccc(CNC(=O)c2cc(C(=O)Nc3ccccc3N)ccc2N2CCOCC2)cc1O`, the IC50 in [12] was found to be 16500 nM; in [2], 97 nM; in data set [3], 101 nM; in data set [4], 77 nM; in [1], 114 nM; in [7] it was 96 nM. Besides, the IC50 in data set [13] is 668 nM; in data set [10], 105 nM; in data set [14], 530 nM; in [15], 2240 nM; in data set [16], 28000 nM. In addition, the IC50 at 72 h in [5] turned out to be 323 nM.
Consider `COc1cc(CCC(=O)NO)ccc1CNC(=O)c1cc(F)ccc1N1CCOCC1`, for which the 50% inhibitory concentration (IC50) in data set [1] is greater than 2000 nM.
Same read-out and setting: next, `O=C(/C=C/c1cccc(CNC(=O)c2cc(F)ccc2N2CCOCC2)c1)NO`: 664 nM.
Still for that read-out and setting: to `COc1cc(/C=C/C(=O)NO)ccc1CNC(=O)c1cc(F)ccc1N1CCOCC1` belongs 1660 nM.
Still for that read-out and setting: next, `COc1cc(CNC(=O)c2cc(F)ccc2N2CCOCC2)ccc1/C=C/C(=O)NO`: 1970 nM; `COc1ccc(CNC(=O)c2cc(F)ccc2N2CCOCC2)cc1C#CCCCCC(=O)NO`: 921 nM; `COc1ccc(CNC(=O)c2cc(F)ccc2N2CCOCC2)cc1OCCCC(=O)NO`: 1040 nM.
On to `COc1ccc(CNC(=O)c2cc(F)ccc2N2CCOCC2)cc1CCC(=O)NO`, for which the IC50 in data set [1] is greater than 2000 nM.
In [1], `COc1ccc(CNC(=O)c2cc(F)ccc2N2CCOCC2)cc1C#CCCC(=O)NO` showed a concentration for half-maximal inhibition (IC50) of 354 nM.
As for `O=C(CCCCCCC(=O)Nc1ccccc1)NO` [VORINOSTAT], in data set [17], the Activity is on record as 61%.
`COc1ccc(CNC(=O)c2cc(/C=C/C(=O)NO)ccc2N2CCOCC2)cc1O`: the IC50 in data set [1] is greater than 2000 nM.
The same measure, in the same setting: next, `COc1cc(CNC(=O)c2cc(F)ccc2N2CCOCC2)ccc1CCC(=O)NO`: greater than 2000 nM; `COc1ccc(CNC(=O)c2cc(F)ccc2N2CCOCC2)c(CCC(=O)NO)c1`: 1060 nM.
`O=C(/C=C/c1cc(CNC(=O)c2cc(F)ccc2N2CCOCC2)ccc1O)NO`: the half-maximal inhibitory concentration (IC50) in data set [2] turned out to be 700 nM; in [3], 642 nM; in [4], 823 nM; in data set [1], 285 nM; in data set [7], 733 nM; in [10], 775 nM. Besides, the half-inhibitory concentration (IC50) at 72 h in data set [5] is 3260 nM.
`COc1ccc(CNC(=O)c2cc(OCC(=O)NO)ccc2N2CCOCC2)cc1O` displayed a 50% inhibitory concentration (IC50) in data set [1] greater than 2000 nM.
Still for that read-out and setting: next, `COc1ccc(CNC(=O)c2cc(F)ccc2N2CCOCC2)cc1C(=O)NO`: 1030 nM; `COc1ccc(CNC(=O)c2cc(OCCCC(=O)NO)ccc2N2CCOCC2)cc1O`: greater than 2000 nM.
Consider `COc1ccc(CNC(=O)c2cc(F)ccc2N2CCOCC2)cc1C(=O)Nc1ccccc1N`, for which, in [1], the IC50 is greater than 2000 nM.
Take `COc1ccc(CNC(=O)c2cc(F)ccc2N2CCOCC2)cc1OCCCCCCC(=O)NO`: in data set [1], the midpoint of inhibition, the IC50, lay at 1500 nM.
The same measure, in the same setting: next, `COc1ccc(CNC(=O)c2cc(C#CCCCCC(=O)NO)ccc2N2CCOCC2)cc1O`: greater than 2000 nM; `COc1ccc(CNC(=O)c2cc(F)ccc2N2CCOCC2)c(/C=C/C(=O)NO)c1`: 2000 nM; `COc1ccc(CNC(=O)c2cc(C(=O)NO)ccc2N2CCOCC2)cc1O`: greater than 2000 nM.
As to `COc1ccc(CNC(=O)c2cc(OCCCCCCC(=O)NO)ccc2N2CCOCC2)cc1O`, the concentration for half-maximal inhibition (IC50) in data set [1] was greater than 2000 nM.
For the compound `COc1ccc(CNC(=O)c2cc(F)ccc2N2CCOCC2)cc1OCC(=O)NO`, the IC50 in [12] worked out at 8860 nM; in data set [2], 114 nM; in [3], 104 nM; in data set [4] it was 105 nM; in data set [1], 61 nM; in data set [7], 95 nM. For the same compound, the IC50 in data set [13] was 2420 nM; in [10] it was 124 nM; in data set [14], 3250 nM; in data set [15], 16500 nM; in data set [16], 6720 nM. Further, the IC50 at 72 h in [5] came to 495 nM.
